Laboratory results as given in ChEMBL document CHEMBL5512642, “Novel triterpenoid pyrones, phthalimides and phthalates are selectively cytotoxic in CCRF-CEM cancer cells - Synthesis, potency, and mitochondrial mechanism of action” (Eur J Med Chem, 2024).

Columns and labels:
[1] = test system: A549; assay: Cytotoxicity against human A549 cells assessed as reduction in cell viability incubated for 72 hrs by MTS assay; format: functional, cell-based; settings: A549, 72 h
[2] = test system: U2OS; assay: Cytotoxicity against human U2OS cells assessed as reduction in cell viability incubated for 72 hrs by MTS assay; format: functional, cell-based
[3] = Cytotoxicity against human K562-Tax cells assessed as reduction in cell viability incubated for 72 hrs by MTS assay; format: functional, cell-based
[4] = test system: CEM-DNR; assay: Cytotoxicity against human CEM-DNR cells assessed as reduction in cell viability incubated for 72 hrs by MTS assay; format: functional, cell-based
[5] = test system: HCT-116; assay: Cytotoxicity against human HCT-116 cells assessed as reduction in cell viability incubated for 72 hrs by MTS assay; format: functional, cell-based; settings: HCT-116, 72 h
[6] = Cytotoxicity against human BJ cells assessed as reduction in cell viability incubated for 72 hrs by MTS assay; format: toxicity, cell-based
[7] = Cytotoxicity against human MRC5 cells assessed as reduction in cell viability incubated for 72 hrs by MTS assay; format: toxicity, cell-based
[8] = test system: CCRF-CEM; assay: Cytotoxicity against human CCRF-CEM cells assessed as reduction in cell viability incubated for 72 hrs by MTS assay; format: functional, cell-based
[9] = test system: K562; assay: Cytotoxicity against human K562 cells assessed as reduction in cell viability incubated for 72 hrs by MTS assay; format: functional, cell-based; settings: K562, 72 h
[10] = test system: HCT 116 TP53(-/-); assay: Cytotoxicity against human HCT116-p53-null cells assessed as reduction in cell viability incubated for 72 hrs by MTS assay; format: functional, cell-based

SMILES | IC50 [1] [µM] | IC50 [2] [µM] | IC50 [3] [µM] | IC50 [4] [µM] | IC50 [5] [µM] | IC50 at 72 h [6] [µM] | IC50 at 72 h [7] [µM] | IC50 [8] [µM] | IC50 [9] [µM] | IC50 [10] [µM]
C[C@H]1[C@H](C)CC[C@]2(C(=O)O)CC[C@]3(C)C(=CC[C@@H]4[C@@]5(C)Cc6c(C(F)(F)F)cc7c(c6C(C)(C)[C@@H]5CC[C@]43C)C(=O)N(c3ccccc3)C7=O)[C@H]12 | > 50 | > 50 | > 50 | > 50 | > 50 | > 50 | > 50 | > 50 | > 50 | > 50
COC(=O)c1cc(C(F)(F)F)c2c(c1C(=O)OC)C(C)(C)[C@@H]1CC[C@]3(C)[C@H](CC[C@@H]4[C@H]5[C@H](C(C)C)CC[C@]5(C(=O)O)CC[C@]43C)[C@@]1(C)C2 | > 50 | 11 | > 50 | > 50 | > 50 | > 50 | > 50 | 5.3 | > 50 | > 50
C=C(C)[C@@H]1CC[C@]2(C(=O)O)CC[C@]3(C)[C@H](CC[C@@H]4[C@@]5(C)CC(C(=O)C(F)(F)F)C(=O)C(C)(C)[C@@H]5CC[C@]43C)[C@@H]12 (stereo partly drawn) | 12 | 30 | – | – | 24 | > 50 | > 50 | 7.3 | 13 | 30
COC(=O)c1cc(C(F)(F)F)c2c(c1C(=O)OC)C(C)(C)[C@@H]1CC[C@]3(C)[C@H](CC=C4[C@@H]5[C@@H](C)[C@H](C)CC[C@]5(C(=O)O)CC[C@]43C)[C@@]1(C)C2 | 17 | 24 | > 50 | > 50 | 38 | > 50 | > 50 | 5.1 | 28 | 26
C[C@H]1[C@H](C)CC[C@]2(C(=O)O)CC[C@]3(C)C(=CC[C@@H]4[C@@]5(C)Cc6c(C(F)(F)F)cc(=O)oc6C(C)(C)[C@@H]5CC[C@]43C)[C@H]12 | 17 | 23 | 21 | 19.5 | 25 | > 50 | > 50 | 6.3 | 23 | 27
